Laboratory results taken from patent publication US8242118B2, “Arylsulfonamide derivatives for use as CCR3 antagonists in the treatment of inflammatory and immunological disorders” (Axikin Pharmaceuticals Inc., priority 2001, dated 2012).
Where a name gives a salt, the structure may show the parent alone.

Columns and labels:
Human CCR3 [1] = molecular target: T1, Human CCR3 (Homo sapiens, UniProt P51677); assay: Receptor binding assay (RBA), [125I]-eotaxin; conditions: human CCR3-transformed K562 cells, 0.1 nM [125I]-eotaxin; compounds of about 40 to 90% purity; read-out: Activity grade RBA (IC50 class)
T1 construct: The cloned CCR3 cDNA was constructed with pcDNA3 vector and transfected into a IC562 cell line; expressed in transfected cells
T1 sequence (P51677 1-355): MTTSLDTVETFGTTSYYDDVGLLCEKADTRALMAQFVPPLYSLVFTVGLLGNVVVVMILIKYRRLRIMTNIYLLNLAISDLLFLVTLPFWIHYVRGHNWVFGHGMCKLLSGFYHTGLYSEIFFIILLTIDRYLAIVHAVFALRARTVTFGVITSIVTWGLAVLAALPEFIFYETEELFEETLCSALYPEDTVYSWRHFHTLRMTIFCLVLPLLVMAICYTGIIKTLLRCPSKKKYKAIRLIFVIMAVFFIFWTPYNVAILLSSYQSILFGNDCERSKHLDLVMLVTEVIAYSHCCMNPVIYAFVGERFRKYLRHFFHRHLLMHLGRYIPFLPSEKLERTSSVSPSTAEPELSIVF
Experimental: [Determination of IC50 Values of Compounds in Receptor Binding Assay]
• Human CCR3-transformed K562 cells were used. The cloned CCR3 cDNA was constructed with pcDNA3 vector and transfected into a IC562 cell line. The human CCR3-transformed K562 cells were maintained in RPMI-1640 (Cat.#22400-089, Life Technologies) supplemented with 10% FCS (Cat.#A-1115-L, Hyclone), 55 μM 2-mercaptoethanol (Cat.#21985-023, Life Technologies), 1 mM sodium pyruvate (Cat.#11360-070, Life Technologies), 100 units/ml of penicillin G and 100 μg/ml of streptomycin (Cat.#15140-122, Life Technologies), and 0.4 mg/ml of Geneticin (Cat.#10131-035, Life Technologies)(hereinafter called “culture medium”). Before the receptor binding assay, cells were pretreated with 5 mM sodium butyrate (Cat.#193-01522, Wako)-containing the culture medium (2×10^5 cells/ml) for 20-24 hours to increase the expression of CCR3. (2) Receptor Binding Assay (RBA) • Butyrate-pretreated cells, suspended in binding buffer (25 mM HEPES pH 7.6, 1 mM CaCl2, 5 mM MgCl2, 0.5% BSA, 0.1% NaN3) at a cell density of 2×10^6 cells/ml, were added into 60 μl/well in the 96-well round bottom polypropylene plate (Cat.#3365, Costar). Compounds, diluted with the binding buffer (4-times higher concentration of the final concentration), were added into 30 μl/well in the polypropylene plate. [^125I]-labeled human eotaxin (Cat.#IM290, Amersham Pharmacia Biotech), diluted with the binding buffer at the concentration of 0.4 nM (final concentration; 0.1 nM), was added into 30 μl/well in the polypropylene plate. Total 120 μl/well of binding reaction mixture (60 μl/well of cell suspension, 30 μl/well of compound solution, and 30 μl/well of [^125I]-labeled eotaxin) were incubated in the polypropylene plate for 1 hour at room temperature after the incubation, 100 μl/well of the reaction mixture was transferred to a filtration plate (Cat.#MAFB-N0B, Millipore), and washed with the washing buffer (25 mM HEPES pH 7.6, 1 mM CaCl2, 5 mM MgCl2, 0.5% BSA, 0.1% NaN3, 0.5 M NaCl) twice. The 96-well filtration plate was pretreated with 100 μl/well of 0.5% polyethylenimine (Cat.#P-3143, Sigma) for 2-4 hours at room temperature and washed with the washing buffer twice before use. The non-specific binding was determined by parallel incubation in the presence of 500 nM of non-labeled eotaxin (Cat.#23209, Genzyme Techne). The radioactivities remained on the filter were measured by liquid scintillation counter (TopCount™, Packard) after an addition of 45 μl/well of scintillant (Microscint20, Cat.#6013621, Packard). The inhibition percent at each concentration of compound was calculated, and IC50 values were determined from the inhibition curve. [Determination of IC50 Values of Compounds in Calcium Mobilization Assay] (IC50 Ca2+) (1) Cell • Human CCR3-transformed K562 cells were used. The human CCR3-transformed K562 cells were maintained in RPMI-1640 supplemented with 10% FCS, 55 μM 2-mercaptoethanol (Cat.#21985-023, Life Technologies), 1 mM sodium pyruvate, 100 units/ml of penicillin G and 100 μg/ml of streptomycin and 0.4 mg/ml of Geneticin. Before the calcium mobilization assay, cells were pretreated with 5 mM sodium butyrate-containing the culture medium (2×10^5 cells/ml) for 20-24 hours to increase the expression of CCR3. (2) Calcium Mobilization Assay • Butyrate-pretreated cells were loaded with Fluo-3AM (Cat.#F-1242, Molecular Probes) in loading buffer (Hanks' solution Cat.#05906 Nissui, 20 mM HEPES pH 7.6, 0.1% BSA, 1 mM probenecid Cat.#P-8761 Sigma, 1 μM Fluo-3AM, 0.01% pluronic F-127 Cat.#P-6866 Molecular Probes) at a cell density of 1×10^7 cells/ml. Then, cells were washed with calcium assay buffer (Hanks' solution Cat.#05906 Nissui, 20 mM HEPES pH 7.6, 0.1% BSA, 1 mM Probenecid Cat.#P-8761 Sigma). The cell suspension (3.3×10^6 cells/ml) was added into 60 μl/well in the 96-well clear bottom black plate (Cat.#3904, Costar). […]

Human CCR3 [2] = molecular target: T1, Human CCR3; assay: Calcium mobilization assay, eotaxin-stimulated; format: cell-based; conditions: human CCR3-transformed K562 cells, 10 nM eotaxin; compounds of about 40 to 90% purity; read-out: Activity grade Ca2+ (IC50 class)
Experimental: • Human CCR3-transformed K562 cells were used. The cloned CCR3 cDNA was constructed with pcDNA3 vector and transfected into a IC562 cell line. The human CCR3-transformed K562 cells were maintained in RPMI-1640 (Cat.#22400-089, Life Technologies) supplemented with 10% FCS (Cat.#A-1115-L, Hyclone), 55 μM 2-mercaptoethanol (Cat.#21985-023, Life Technologies), 1 mM sodium pyruvate (Cat.#11360-070, Life Technologies), 100 units/ml of penicillin G and 100 μg/ml of streptomycin (Cat.#15140-122, Life Technologies), and 0.4 mg/ml of Geneticin (Cat.#10131-035, Life Technologies)(hereinafter called “culture medium”). Before the receptor binding assay, cells were pretreated with 5 mM sodium butyrate (Cat.#193-01522, Wako)-containing the culture medium (2×10^5 cells/ml) for 20-24 hours to increase the expression of CCR3. (2) Receptor Binding Assay (RBA) • Butyrate-pretreated cells, suspended in binding buffer (25 mM HEPES pH 7.6, 1 mM CaCl2, 5 mM MgCl2, 0.5% BSA, 0.1% NaN3) at a cell density of 2×10^6 cells/ml, were added into 60 μl/well in the 96-well round bottom polypropylene plate (Cat.#3365, Costar). Compounds, diluted with the binding buffer (4-times higher concentration of the final concentration), were added into 30 μl/well in the polypropylene plate. [^125I]-labeled human eotaxin (Cat.#IM290, Amersham Pharmacia Biotech), diluted with the binding buffer at the concentration of 0.4 nM (final concentration; 0.1 nM), was added into 30 μl/well in the polypropylene plate. Total 120 μl/well of binding reaction mixture (60 μl/well of cell suspension, 30 μl/well of compound solution, and 30 μl/well of [^125I]-labeled eotaxin) were incubated in the polypropylene plate for 1 hour at room temperature after the incubation, 100 μl/well of the reaction mixture was transferred to a filtration plate (Cat.#MAFB-N0B, Millipore), and washed with the washing buffer (25 mM HEPES pH 7.6, 1 mM CaCl2, 5 mM MgCl2, 0.5% BSA, 0.1% NaN3, 0.5 M NaCl) twice. The 96-well filtration plate was pretreated with 100 μl/well of 0.5% polyethylenimine (Cat.#P-3143, Sigma) for 2-4 hours at room temperature and washed with the washing buffer twice before use. The non-specific binding was determined by parallel incubation in the presence of 500 nM of non-labeled eotaxin (Cat.#23209, Genzyme Techne). The radioactivities remained on the filter were measured by liquid scintillation counter (TopCount™, Packard) after an addition of 45 μl/well of scintillant (Microscint20, Cat.#6013621, Packard). The inhibition percent at each concentration of compound was calculated, and IC50 values were determined from the inhibition curve. [Determination of IC50 Values of Compounds in Calcium Mobilization Assay] (IC50 Ca2+) (1) Cell • Human CCR3-transformed K562 cells were used. The human CCR3-transformed K562 cells were maintained in RPMI-1640 supplemented with 10% FCS, 55 μM 2-mercaptoethanol (Cat.#21985-023, Life Technologies), 1 mM sodium pyruvate, 100 units/ml of penicillin G and 100 μg/ml of streptomycin and 0.4 mg/ml of Geneticin. Before the calcium mobilization assay, cells were pretreated with 5 mM sodium butyrate-containing the culture medium (2×10^5 cells/ml) for 20-24 hours to increase the expression of CCR3. (2) Calcium Mobilization Assay • Butyrate-pretreated cells were loaded with Fluo-3AM (Cat.#F-1242, Molecular Probes) in loading buffer (Hanks' solution Cat.#05906 Nissui, 20 mM HEPES pH 7.6, 0.1% BSA, 1 mM probenecid Cat.#P-8761 Sigma, 1 μM Fluo-3AM, 0.01% pluronic F-127 Cat.#P-6866 Molecular Probes) at a cell density of 1×10^7 cells/ml. Then, cells were washed with calcium assay buffer (Hanks' solution Cat.#05906 Nissui, 20 mM HEPES pH 7.6, 0.1% BSA, 1 mM Probenecid Cat.#P-8761 Sigma). The cell suspension (3.3×10^6 cells/ml) was added into 60 μl/well in the 96-well clear bottom black plate (Cat.#3904, Costar). Compounds, diluted (5-times concentration of the final concentration) with the calcium assay buffer, were added into 20 μl/well in the plate 10 minutes before assay. […]

SMILES | IC50 (Human CCR3 [1]) [µM] | melting point [°C] | IC50 (Human CCR3 [2]) [nM]
O=[N+]([O-])c1ccc(Oc2ccccc2F)c(S(=O)(=O)N2CCNCC2)c1 [Example 1-14] | 1 to 10 | 118 to 120 | –
Cl.O=[N+]([O-])c1ccc(Oc2cccc(F)c2)c(S(=O)(=O)N2CCNCC2)c1 [Example 1-15] | 1 to 10 | 227 to 229 | –
Cc1ccc(Oc2ccc([N+](=O)[O-])cc2S(=O)(=O)N2CCNCC2)cc1.Cl [Example 1-16] | > 10 | 188 to 192 | –
Cc1cccc(Oc2ccc([N+](=O)[O-])cc2S(=O)(=O)N2CCNCC2)c1.Cl [Example 1-17] | < 1 | 242 to 244 | –
O=[N+]([O-])c1ccc(Oc2cccc(Cl)c2Cl)c(S(=O)(=O)N2CCNCC2)c1 [Example 1-82] | 1 to 10 | 173 to 174 | –
O=[N+]([O-])c1ccc(Oc2ccc(Cl)c(Cl)c2)c(S(=O)(=O)N2CCNCC2)c1 [Example 1-83] | > 10 | 167 to 168 | –

Results, then the compound that gave them:

IC50 (Human CCR3 [1]) [µM] | melting point [°C] | IC50 (Human CCR3 [2]) [nM] | SMILES
< 1 | – | – | Cc1cc(C)cc(Nc2ccc([N+](=O)[O-])cc2S(=O)(=O)N2CCNCC2)c1 [Example 3-1, N-(3,5-dimethyl-phenyl)-4-nitro-2-(1-piperazinylsulfonyl)aniline dihydrochloride]
> 10 | 123 to 124 | – | Cc1cc(C)cc(Oc2ccc([N+](=O)[O-])cc2S(=O)(=O)N2CCN(Cc3ccccc3)CC2)c1 [Example 4-9]
> 10 | 210 to 212 | – | Cc1cc(C)cc(Oc2ccc([N+](=O)[O-])cc2S(=O)(=O)N2CCN(C=O)CC2)c1 [Example 4-10]
< 1 | 156 to 158 | – | Cc1cc(C)cc(Oc2ccc([N+](=O)[O-])cc2S(=O)(=O)N2CCC(N3CCCC3)CC2)c1 [Example 4-11]
1 to 10 | 226 | – | CN(C)c1ccc(NS(=O)(=O)c2cc([N+](=O)[O-])ccc2Oc2cc(Cl)cc(Cl)c2)cc1 [Example 4-25]
– | 134 | < 1000 | CN(C)CC(C)(C)CNS(=O)(=O)c1cc([N+](=O)[O-])ccc1Oc1cc(Cl)cc(Cl)c1 [Example 4-35]
– | 160 to 162 | < 1000 | CCOC(=O)CCN1CCN(S(=O)(=O)c2cc([N+](=O)[O-])ccc2Oc2cc(Cl)cc(Cl)c2)CC1 [Example 4-37]
– | 148 | < 1000 | Cc1cc(C)cc(Oc2cc(C)c(Cl)cc2S(=O)(=O)N2CCNCC2)c1.Cl [Example 5-8]
– | 144 to 145 | < 1000 | N#Cc1ccc(Oc2cc(Cl)cc(Cl)c2)c(S(=O)(=O)N2CCC[C@H]2CN2CCCC2)c1 [Example 13-3]
– | 104 | < 1000 | CN(c1cccnc1)S(=O)(=O)c1cc(C#N)ccc1Oc1cc(Cl)cc(Cl)c1.Cl [Example 13-10]
– | 124 | < 1000 | CSCCCN1CCN(S(=O)(=O)c2cc(C#N)ccc2Sc2cc(Cl)cc(Cl)c2)CC1 [Example 17-2]
– | 144 to 145 | < 1000 | CN(C)CC(C)(C)CN(C)S(=O)(=O)c1cc([N+](=O)[O-])ccc1Sc1cc(Cl)cc(Cl)c1 [Example 26-3]
